Target: 45 diverse receptors
Experiment: PDSP comprehensive off-target screen
Assay type: binding
Conditions: PDSP comprehensive screen at 45 targets
Procedure: . Off-target binding activities at 45 diverse receptors were determined by PDSP[25] for selected compounds: 6c and 13 (ESI ^†). […]; 1.92 μM, 5HT2B receptor. Thus, the primary amine precursor of the fluorescent conjugates 10–12 was not promiscuous in its interaction with other proteins, i.e. this chemical series is not associated with pan-assay interference compounds.[26]
Chinese hamster ovary (CHO) cells stably expressing the human A2AAR were cultured in Dulbecco's Modified Eagle Medium (Mediatech, Manassas, VA) supplemented with 10% fetal bovine serum, 100 units/ml penicillin, 100 µg/ml streptomycin and 2 µmol/ml glutamine. Cells were plated in 96-well plates in 100 µl medium. After 24 h, the medium was removed and cells were washed three times with 100 µl DMEM, containing 50 mM HEPES, pH 7.4. Cells were treated with antagonists (or medium for control) in the presence of rolipram (10 µM) and adenosine deaminase (3 units/ml) and 5 min later with agonist for 20 min. The reaction was terminated by removal of the supernatant, and cells were lysed upon the addition of 100 µl of lysis buffer (0.3% Tween-20). cAMP was measured using ALPHAScreen cAMP kits (PerkinElmer, Boston, MA) as instructed by the manufacturer.
Refer to: http://pdspdb.unc.edu for full list of comprehensive screen at 45 targets.
5HT2A serotonin receptor: […]

Off-target interactions (Ki in radioligand binding inhibition < 10 µM): None detected
SMILES: N.Nc1nc2c(cnn2CCCc2ccc(OCc3ccc(S(=O)(=O)O)cc3)cc2)c2nc(-c3ccco3)nn12 [compound 13]

From article PMC5729930, “Bitopic fluorescent antagonists of the A2A adenosine receptor based on pyrazolo[4,3-e][1,2,4]triazolo[1,5-c]pyrimidin-5-amine functionalized congeners” (MedChemComm, 2017)
